{
  "source": "paper PMC3135366",
  "about": "(The Journal of Experimental Medicine, 2011)",
  "molecular_target": "T1, E. coli DOXPRI (Escherichia coli, UniProt P45568)",
  "T1 sequence (P45568 1-398)": "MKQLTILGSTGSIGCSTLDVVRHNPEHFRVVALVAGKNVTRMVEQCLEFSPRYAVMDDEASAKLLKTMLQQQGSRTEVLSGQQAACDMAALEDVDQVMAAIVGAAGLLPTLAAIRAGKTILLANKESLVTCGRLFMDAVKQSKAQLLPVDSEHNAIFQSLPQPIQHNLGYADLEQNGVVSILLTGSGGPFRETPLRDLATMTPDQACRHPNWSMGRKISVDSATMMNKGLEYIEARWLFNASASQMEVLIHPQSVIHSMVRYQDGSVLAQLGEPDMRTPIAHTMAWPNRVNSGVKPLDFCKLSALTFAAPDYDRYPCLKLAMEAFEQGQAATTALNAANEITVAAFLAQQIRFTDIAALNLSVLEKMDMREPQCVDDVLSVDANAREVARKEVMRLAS",
  "assay": "NADPH oxidation assay",
  "assay_type": "biochemical",
  "data": [
    {"smiles": "NC(=O)C1=CN([C@@H]2O[C@H](COP(=O)(O)OP(=O)(O)OC[C@H]3O[C@@H](n4cnc5c(N)ncnc54)[C@H](OP(=O)(O)O)[C@@H]3O)[C@@H](O)[C@H]2O)C=CC1", "note": "[NADPH]", "values": [
      {"measurement": "NADPH oxidation assay", "result": "noted robust activity for the E. coli enzyme expressed in parallel"}
    ]}
  ]
}
